IC50 data for two molecules are collected here from publication PMC7705960, “Discovery of a Beetroot Protease Inhibitor to Identify and Classify Plant-Derived Cystine Knot Peptides” (Journal of Natural Products, 2020).

Several values for one entry are separate records, joined by “and”; a condition that tells them apart may be missing. Identical values can stand only once. Like-named read-outs stand apart in the source and are kept apart here. Positions of bridges follow the written chain, without caps; N, C: chain ends. Residues, ends and D or L forms follow the SMILES beside them.

Assay [1] deals with T1, Bovine β-trypsin (Bos taurus, UniProt P00760).
T1 sequence (P00760 24-246): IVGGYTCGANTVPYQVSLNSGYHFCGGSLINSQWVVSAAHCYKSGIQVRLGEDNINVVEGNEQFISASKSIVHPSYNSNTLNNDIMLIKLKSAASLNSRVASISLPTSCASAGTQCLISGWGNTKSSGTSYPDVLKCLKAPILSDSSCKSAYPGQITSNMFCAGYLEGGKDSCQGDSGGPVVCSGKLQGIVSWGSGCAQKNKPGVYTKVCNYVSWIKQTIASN
In words: Trypsin inhibition assay (colorimetric, benzoylarginine-4-nitroanilide). It counts as biochemical. The method, then:
Based on the classification of bevuTI-I as putative trypsin inhibitor of the M. jalapa trypsin inhibitor family, enzymatic inhibition assays were performed.[33] Bovine β-trypsin and bevuTI-I were used in a colorimetric trypsin inhibition assay to measure concentration-dependent inhibition.
The trypsin inhibition assay was performed in 96-well microtiter plates. To 140 μL of a 20 mM Tris-HCl buffer (pH 8.0) was added 20 μL of inhibitor (dissolved in buffer)/buffer (negative control). Afterward, 20 μL of bovine trypsin (0.125 mg/mL, Sigma-Aldrich) was added, and the plate was incubated for 10 min at 22 °C. A volume of 20 μL of benzoylarginine-4-nitroanilide hydroxychloride (Bachem, Bubendorf, Switzerland) dissolved in 20% DMSO at a concentration of 900 μM was added automatically with the dispenser of the Synergy H4 Hybrid reader (BioTek, VM, USA). The rate of enzymatic reaction with different concentrations of inhibitor was measured for 1 h every 5 min at a wavelength of 410 nm. For calculations, the linear portion of data, corresponding to the initial rate of reaction, was used. The highest rate was set to 100% activity. A nonlinear regression (log inhibitor vs normalized response) was performed with GraphPad Prism version 8.0.0 for Windows (GraphPad Software, CA, USA). The top and bottom parameters were set to 100% and 0%, respectively.

Assay [2] addresses T2, human POP (Homo sapiens, UniProt P48147).
T2 construct: The full-length cDNA was cloned into the BamHI and EcoRI cloning sites of the commercially available expression plasmid pGEX-6P1; GST (from pGEX-6P1) (N, cleaved yes); made in house; host or cells: E. coli BL21
T2 sequence (P48147 1-710): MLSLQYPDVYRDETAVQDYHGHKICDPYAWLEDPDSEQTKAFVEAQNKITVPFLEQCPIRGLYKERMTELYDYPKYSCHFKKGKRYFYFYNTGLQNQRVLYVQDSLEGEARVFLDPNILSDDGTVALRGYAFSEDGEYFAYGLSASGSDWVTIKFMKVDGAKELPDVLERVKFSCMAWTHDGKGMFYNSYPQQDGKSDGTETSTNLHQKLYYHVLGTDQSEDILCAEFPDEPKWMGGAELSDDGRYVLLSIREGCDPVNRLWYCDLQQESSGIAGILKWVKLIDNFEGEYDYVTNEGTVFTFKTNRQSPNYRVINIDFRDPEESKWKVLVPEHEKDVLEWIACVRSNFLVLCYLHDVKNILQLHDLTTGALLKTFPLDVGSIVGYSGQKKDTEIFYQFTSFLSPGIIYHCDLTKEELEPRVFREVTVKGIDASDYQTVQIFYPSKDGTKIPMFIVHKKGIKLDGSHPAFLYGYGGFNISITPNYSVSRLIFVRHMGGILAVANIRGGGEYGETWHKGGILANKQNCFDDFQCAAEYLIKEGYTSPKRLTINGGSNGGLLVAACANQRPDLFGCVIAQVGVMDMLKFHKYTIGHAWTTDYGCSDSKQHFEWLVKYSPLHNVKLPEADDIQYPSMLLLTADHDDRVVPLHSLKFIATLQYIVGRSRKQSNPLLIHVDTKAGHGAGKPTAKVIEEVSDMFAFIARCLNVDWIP
In words: Prolyl oligopeptidase (POP) inhibition assay (fluorescence, Z-Gly-Pro-AMC). It counts as biochemical. Particulars: synthetic bevuTI-I; recombinant human POP 50 ng, Z-Gly-Pro-AMC 45 μM, 20 mM HEPES pH 7.4, 150 mM NaCl, 1 mM EDTA, 0.5 mM DTT, ex 360/em 450 nm; mean ± SD of three biological replicates. An excerpt: As it was previously reported, plant cystine knot peptides belonging to the cyclotide family have the ability to inhibit human prolyl endopeptidase.[33] Thus, we were interested whether the bevuTI-I was also able to inhibit this enzyme. Like psysol-2, bevuTI-I has three proline residues and presumably the same cysteine connectivity.
Recombinant human POP (NM_002726.4) was produced in E. coli BL21 (New England Biolabs, MA, USA). The full-length cDNA was cloned into the BamHI and EcoRI cloning sites of the commercially available expression plasmid pGEX-6P1 by a customized manufacturer service from GenScript (Leiden, The Netherlands). […] The protein concentration of the eluate was determined by the bicinchoninic acid assay (ThermoFisher Scientific), and aliquots of stock protease in storage buffer (including 20% glycerol) were kept at −80 °C. […] Enzyme activity was measured by fluorescence signal as a result of free fluorophore from the Z-Gly-Pro-AMC substrate with an excitation of 360 ± 20 nm and emission of 450 ± 20 nm. Kinetic inhibition data were recorded in 5 min intervals, and the amount of inhibition was calculated from the steepness of the linear initial velocity. […] Concentration–response experiments were evaluated with a fitted nonlinear regression function in GraphPad Prism.

Regarding `CC[C@H](C)[C@@H]1NC(=O)[C@H](CCCNC(=N)N)NC(=O)[C@H](CC(C)C)NC(=O)[C@H](Cc2c[nH]c3ccccc23)NC(=O)[C@H](CCC(N)=O)NC(=O)[C@H](Cc2c[nH]cn2)NC(=O)[C@@H]2CCCN2C(=O)[C@H](C(C)C)NC(=O)[C@@H]2CSSC[C@@H]3NC(=O)[C@H]([C@@H](C)CC)NC(=O)[C@H]([C@@H](C)O)NC(=O)CNC(=O)[C@H](CO)NC(=O)[C@@H]4CCCN4C(=O)[C@H]([C@@H](C)O)NC(=O)[C@@H](N)CSSC[C@H](NC(=O)[C@H](CSSC[C@@H](C(=O)N[C@@H](C)C(=O)O)NC(=O)[C@H](C(C)C)NC(=O)[C@H](Cc4ccccc4)NC1=O)NC(=O)[C@H](CCC(N)=O)NC(=O)[C@H](CCC(=O)O)NC(=O)[C@@H]1CCCN1C(=O)[C@H](C)NC(=O)[C@H](CCC(=O)O)NC(=O)[C@@H]1CCCN1C(=O)[C@H](CO)NC3=O)C(=O)N[C@@H](CO)C(=O)N[C@@H](CC(N)=O)C(=O)N[C@@H](CO)C(=O)N2` [bevuTI-I, Beta vulgaris trypsin inhibitor I] (H-CTPSGTICSPEAPEQCCSNSCVPHQWLRIFVCA-OH; disulfide 1-17, 8-21, 16-32), the IC50 in assay [1] is 471 nM and 568 nM; in assay [2] it was 11000 ± 5300 nM.

B1: Kunitz-type soybean trypsin inhibitor: well-characterized Kunitz-type soybean trypsin inhibitor, used as control (protein, UniProt P01070 25-205, looked up)
Trypsin inhibitor A: DFVLDNEGNPLENGGTYYILSDITAFGGIRAAPTGNERCPLTVVQSRNELDKGIGTIISSPYRIRFIAEGHPLSLKFDSFAVIMLCVGIPTEWSVVEDLPEGPAVKIGENKDAMDGWFRLERVSDDEFNNYKLVFCPQQAEDDKCGDIGISIDHDDGTRRLVVSKNKPLVVQFQKLDKESL
For the molecule B1, the half-inhibitory concentration (IC50) in assay [1] (control inhibitor (Glycine max Kunitz-type), bovine trypsin, 20 mM Tris-HCl pH 8.0, 10 min pre-incubation at 22 °C, 410 nm, read-out: IC50, trypsin inhibition) is 198 ± 72 nM.

One may read the IC50 as the point on the concentration scale where inhibition reaches its midpoint.
